10 compounds from ChEMBL document CHEMBL1201862, “PubChem BioAssay data set” (2004) can be followed below.

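Method: 48-hour compound exposure of cells in 96-well plates, five concentrations, linear interpolation of endpoints. At the GI50, growth is halved.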 Calls of active or inactive are those of the source. Rule as the data show it: active = GI50 up to about 1.1 µM and inactive = higher. A value given as a limit tells only on which side of the number the result lay.

Test systems include U-251; NCI-H460; SF-268; HL-60; SK-MEL-5; ACHN; IGROV-1; HCC 2998; HCT-116; SN12C; UACC-257; MOLT-4; NCI/ADR-RES; SK-MEL-2; SK-MEL-28; DU-145; SF-295; HOP-62; NCI-H226; SR.
Common to all, as to test: NCI-60 cell line screen, 48 h

As to `CC1OC(O[C@H]2C3C=CO[C@@H](OC4OC(CO)C(O)C(O)C4O)C3[C@@]3(COC(=O)/C=C/c4ccccc4)O[C@@H]23)C(O)C(O)C1O` (stereo not given in full), the GI50 in the experiment on U-251, in the experiment with NCI-H460, in the experiment with SF-268, with HL-60, in the experiment with SK-MEL-5 and in the experiment on ACHN was > 100 µM (inactive) each time. Also, the GI50 with IGROV-1, in the experiment on HCC 2998, in the experiment with HCT-116, with SN12C, in the experiment on UACC-257 and in the experiment with MOLT-4 was > 100 µM (inactive) throughout. In addition, the GI50 in the experiment on NCI/ADR-RES, in the experiment with SK-MEL-2, in the experiment on SK-MEL-28, with DU-145, in the experiment with SF-295 and in the experiment on HOP-62 was > 100 µM (inactive) in each case. The GI50 in the experiment with NCI-H226 was > 100 µM (inactive).

On to `O=C1N(c2ccccc2)C(=S)/C(=C/c2ccc(Cl)cc2)N1c1ccc(Cl)cc1`, for which the GI50 is 28.1 µM (inactive) in the experiment with U-251; > 100 µM (inactive) with NCI-H460; 46.9 µM (inactive) in the experiment with SF-268; 32.5 µM (inactive) in the experiment on HL-60; 46.6 µM (inactive) in the experiment with SK-MEL-5; 0.571 µM (active) with SR. Besides, the GI50 is 19.1 µM (inactive) in the experiment with ACHN; 41.3 µM (inactive) in the experiment with IGROV-1; > 100 µM (inactive) in the experiment with HCC 2998; 20 µM (inactive) in the experiment on HCT-116; 52 µM (inactive) with SN12C; 55.8 µM (inactive) with UACC-257. The GI50 with MOLT-4 was 0.923 µM (active); in the experiment with NCI/ADR-RES, 77.3 µM (inactive); in the experiment with SK-MEL-2, 43.7 µM (inactive); with SK-MEL-28, 34.8 µM (inactive); in the experiment with DU-145, 53 µM (inactive); with SF-295 it was 38.4 µM (inactive). In the experiment with HOP-62, the GI50 was 32.2 µM (inactive).

As for `O=c1c2c(c1=O)C1(SCCCS1)c1cc(Cl)ccc1O2`, the GI50 in the experiment on U-251, in the experiment with NCI-H460, with SF-268, with HL-60, in the experiment on SK-MEL-5 and with ACHN was > 100 µM (inactive) each time. The GI50 with IGROV-1, in the experiment with HCC 2998, in the experiment with HCT-116, in the experiment with SN12C, with UACC-257 and in the experiment with MOLT-4 was > 100 µM (inactive) each time. The GI50 in the experiment with NCI/ADR-RES, with SK-MEL-2, in the experiment with SK-MEL-28, with DU-145, with SF-295 and in the experiment with HOP-62 was > 100 µM (inactive) in each case. In the experiment on NCI-H226, the GI50 was > 100 µM (inactive).

With `C=CC(C)CCC(C/C=C(\C)CCC=C(C)C)C(=C)CCCC(C)C` (stereo not given), the GI50 in the experiment with U-251, in the experiment with NCI-H460, in the experiment on SF-268, in the experiment with HL-60, with SK-MEL-5 and in the experiment on SR was > 100 µM (inactive) each time. The GI50 in the experiment with ACHN, with IGROV-1, with HCC 2998, in the experiment on HCT-116, in the experiment on SN12C and in the experiment with UACC-257 was > 100 µM (inactive) throughout. Also, the GI50 in the experiment with MOLT-4, with NCI/ADR-RES, with SK-MEL-2, with SK-MEL-28, in the experiment on DU-145 and in the experiment with SF-295 was > 100 µM (inactive) in each case. Besides, the GI50 in the experiment on HOP-62 was > 100 µM (inactive).

Turning to `CC1=NN(C2=NS(=O)(=O)c3ccccc3N2C)C(=O)C1`, the GI50 in the experiment on U-251, in the experiment with NCI-H460, with SF-268, in the experiment with HL-60, with SK-MEL-5 and in the experiment with ACHN was > 100 µM (inactive) in each case. For the same compound, the GI50 in the experiment with IGROV-1, with HCC 2998, with HCT-116, with SN12C, with UACC-257 and in the experiment on MOLT-4 was > 100 µM (inactive) in each case. Also, the GI50 with NCI/ADR-RES, in the experiment on SK-MEL-2, in the experiment with SK-MEL-28, with DU-145, in the experiment on SF-295 and with HOP-62 was > 100 µM (inactive) each time. Moreover, in the experiment on NCI-H226, the GI50 is > 100 µM (inactive).

As to `N#Cc1nc(-c2ccccn2)c(-c2ccccn2)nc1C#N`, the GI50 with U-251 is 2.32 µM (inactive); in the experiment on NCI-H460, 0.47 µM (active); with SF-268, 1.25 µM (inactive); with SK-MEL-5 it was 1.85 µM (inactive); with SR, 1.82 µM (inactive); in the experiment with ACHN it was 1.11 µM (active). Also, the GI50 in the experiment with IGROV-1 was 1.43 µM (inactive); in the experiment on HCC 2998 it was 3.66 µM (inactive); with HCT-116, 0.624 µM (active); in the experiment on SN12C, 4.82 µM (inactive); with UACC-257, 3.65 µM (inactive); in the experiment on MOLT-4 it was 4.19 µM (inactive). Besides, the GI50 is 1.8 µM (inactive) in the experiment with NCI/ADR-RES; 3.59 µM (inactive) in the experiment with SK-MEL-2; 3.96 µM (inactive) with SK-MEL-28; 2.32 µM (inactive) in the experiment with DU-145; 0.811 µM (active) with SF-295; 1.74 µM (inactive) in the experiment on HOP-62. Besides, in the experiment on NCI-H226, the GI50 was 0.593 µM (active).

Turning to `O=C(O)Cc1ccc2c(c1)/C(=C1/Nc3ccccc3C1=O)C(=O)N2`, the GI50 in the experiment on U-251 was 39.6 µM (inactive); in the experiment on NCI-H460, 56.2 µM (inactive); in the experiment on SF-268, 58.2 µM (inactive); in the experiment with SK-MEL-5 it was 20.7 µM (inactive); in the experiment with SR, 21.9 µM (inactive); with ACHN it was 32.5 µM (inactive). Besides, the GI50 in the experiment with IGROV-1 was 0.355 µM (active); in the experiment on HCC 2998, 36.5 µM (inactive); in the experiment on HCT-116 it was 24 µM (inactive); in the experiment on SN12C, 56.1 µM (inactive); in the experiment on UACC-257, 32.3 µM (inactive); with MOLT-4, 25.8 µM (inactive). Also, the GI50 is > 100 µM (inactive) in the experiment on NCI/ADR-RES; 40.9 µM (inactive) with SK-MEL-2; 54.3 µM (inactive) in the experiment with SK-MEL-28; 49.9 µM (inactive) with DU-145; 80.5 µM (inactive) in the experiment on SF-295; 51.8 µM (inactive) in the experiment with HOP-62. Also, the GI50 in the experiment on NCI-H226 was 60.8 µM (inactive).

As for `CON(C)C(=O)[C@H]1C[C@@]1(C)CO`, the GI50 with U-251, in the experiment with NCI-H460, in the experiment with SF-268, in the experiment with SK-MEL-5, with SR and in the experiment on ACHN was > 100 µM (inactive) in each case. For the same compound, the GI50 in the experiment with IGROV-1, in the experiment on HCC 2998, in the experiment with HCT-116, in the experiment on SN12C, with UACC-257 and in the experiment with MOLT-4 was > 100 µM (inactive) in each case. Besides, the GI50 in the experiment with NCI/ADR-RES, with SK-MEL-2, in the experiment with SK-MEL-28, in the experiment on DU-145, in the experiment on SF-295 and with HOP-62 was > 100 µM (inactive) in each case. The GI50 in the experiment on NCI-H226 was > 100 µM (inactive).

In the case of `Cc1nc2ccccc2n1Cc1nnc(-c2ccccc2)o1`, the GI50 in the experiment on U-251 was > 100 µM (inactive); in the experiment with NCI-H460, 91 µM (inactive); in the experiment on SF-268, > 100 µM (inactive); in the experiment with HL-60, > 100 µM (inactive); with SK-MEL-5, 55 µM (inactive); with SR, 43.6 µM (inactive). Moreover, the GI50 with ACHN is > 100 µM (inactive); in the experiment with IGROV-1, 72.9 µM (inactive); with HCC 2998 it was > 100 µM (inactive); in the experiment on HCT-116, 46.2 µM (inactive); in the experiment on SN12C, > 100 µM (inactive); with UACC-257, > 100 µM (inactive). Besides, the GI50 is 41.8 µM (inactive) in the experiment with MOLT-4; > 100 µM (inactive) with NCI/ADR-RES; > 100 µM (inactive) in the experiment with SK-MEL-2; > 100 µM (inactive) with SK-MEL-28; > 100 µM (inactive) with DU-145; > 100 µM (inactive) in the experiment with SF-295. For the same compound, the GI50 in the experiment on HOP-62 was > 100 µM (inactive).

Turning to `C=C(C(=O)OC)[C@@H]1C[C@@H](OC(C)=O)C2=C[C@H](C[C@@]3(C)O[C@@H]3C3=CC(C)=C(O3)[C@H]1OC(C)=O)OC2=O` [BIPINNATIN I], the GI50 with U-251 was 23.1 µM (inactive); in the experiment with NCI-H460 it was 23.6 µM (inactive); in the experiment with SF-268, 36.1 µM (inactive); in the experiment on SK-MEL-5, 15.2 µM (inactive); with SR, 9.38 µM (inactive); in the experiment with ACHN, 16.5 µM (inactive). Besides, the GI50 in the experiment on IGROV-1 was 15.3 µM (inactive); in the experiment on HCC 2998 it was 20.4 µM (inactive); in the experiment on HCT-116, 10.4 µM (inactive); in the experiment with SN12C it was 22.4 µM (inactive); in the experiment with UACC-257, 18.2 µM (inactive); in the experiment on MOLT-4 it was 2.16 µM (inactive). Also, the GI50 in the experiment with NCI/ADR-RES is 32.9 µM (inactive); with SK-MEL-2 it was 31 µM (inactive); in the experiment with SK-MEL-28, 16.2 µM (inactive); in the experiment with DU-145 it was 32.9 µM (inactive); in the experiment with SF-295 it was 27 µM (inactive); with HOP-62 it was 22.7 µM (inactive). For the same compound, the GI50 in the experiment on NCI-H226 is 90.8 µM (inactive).
